Literature values, collected in US20220378803A1, “INJECTABLE COMPOSITIONS OF URSODEOXYCHOLIC ACID” (SHILPA MEDICARE LIMITED, priority 2019, published 2022).

- solubility in water: practically insoluble
Structure (SMILES): C[C@H](CCC(=O)O)[C@H]1CC[C@H]2[C@@H]3[C@@H](O)C[C@@H]4C[C@H](O)CC[C@]4(C)[C@H]3CC[C@]12C [UDCA, ursodeoxycholic acid]
